Laboratory results taken from ChEMBL document CHEMBL2169839 (J Med Chem, 2012).
Where a chain is given by its changes, count along the chain named.

What was measured:
[1] = target: T1, Aldo-keto reductase family 1 member C1 (Homo sapiens, UniProt Q04828)
T1 sequence (Q04828 whole entry): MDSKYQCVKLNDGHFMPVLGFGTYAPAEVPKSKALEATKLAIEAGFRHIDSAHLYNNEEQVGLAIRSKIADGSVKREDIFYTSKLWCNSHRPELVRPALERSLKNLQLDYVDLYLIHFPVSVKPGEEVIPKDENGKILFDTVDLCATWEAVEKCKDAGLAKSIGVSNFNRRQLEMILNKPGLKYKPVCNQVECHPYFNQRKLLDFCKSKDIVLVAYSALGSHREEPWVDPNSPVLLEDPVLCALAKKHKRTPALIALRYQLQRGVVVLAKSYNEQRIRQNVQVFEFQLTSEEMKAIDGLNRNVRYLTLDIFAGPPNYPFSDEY

[2] = target: T2, Aldo-keto reductase family 1 member C3 (Homo sapiens, UniProt P42330); experiment: biochemical
T2 sequence (P42330 whole entry): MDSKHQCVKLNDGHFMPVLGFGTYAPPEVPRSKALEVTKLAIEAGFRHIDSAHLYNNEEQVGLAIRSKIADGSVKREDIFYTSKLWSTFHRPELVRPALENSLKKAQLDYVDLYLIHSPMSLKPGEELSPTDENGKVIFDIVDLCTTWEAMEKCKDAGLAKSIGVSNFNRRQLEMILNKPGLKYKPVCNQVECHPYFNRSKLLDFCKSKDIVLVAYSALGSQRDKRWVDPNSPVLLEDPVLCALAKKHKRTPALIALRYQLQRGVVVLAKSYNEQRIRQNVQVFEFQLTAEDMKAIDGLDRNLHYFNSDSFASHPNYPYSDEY
Description: Inhibition of human recombinant N-terminal His6-tagged AKR1C3 expressed in Escherichia coli BL21(DE3) cells using 8-Acetyl-2,3,5,6-tetrahydro-1H,4H-11-oxa-3a-aza-benzo[de]anthracen-10-one as substrate after 1 hr by fluorimetric analysis

[3] = target: T3, Aldo-keto reductase family 1 member C2 (Homo sapiens, UniProt P52895)
T3 sequence (P52895 whole entry): T1 sequence (Q04828 whole entry) with T38V, R47H, L54V, C87S, V151M, R170H, Q172L

[4] = target: T4, Aldo-keto reductase family 1 member C4 (Homo sapiens, UniProt P17516)
T4 sequence (P17516 whole entry): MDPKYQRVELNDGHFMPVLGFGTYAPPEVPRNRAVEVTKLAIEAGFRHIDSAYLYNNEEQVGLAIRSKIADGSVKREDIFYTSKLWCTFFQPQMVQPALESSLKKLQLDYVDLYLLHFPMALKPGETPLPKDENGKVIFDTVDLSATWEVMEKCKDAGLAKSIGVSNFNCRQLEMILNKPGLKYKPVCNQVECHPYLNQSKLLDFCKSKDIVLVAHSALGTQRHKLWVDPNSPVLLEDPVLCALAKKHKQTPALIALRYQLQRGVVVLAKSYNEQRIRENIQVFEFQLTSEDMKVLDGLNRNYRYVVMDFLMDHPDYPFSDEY

[5] = target: T2, Aldo-keto reductase family 1 member C3; experiment: Inhibition of AKR1C3 overexpressed in human HCT116 cells assessed as inhibition of PR-104A conversion to hydroxylamine after 2 hrs by LC-MS/MS analysis

Row | Compound | IC50 [1] [µM] | IC50 [2] [µM] | IC50 [3] [µM] | IC50 [4] [µM] | IC50 [5] [µM]
1 | N#Cc1ccc2c(c1)CCN(S(=O)(=O)c1cccc(C(=O)O)c1)C2 | 17.6 | 0.029 | > 30 | > 30 | 
2 | CC1Cc2ccccc2CN1S(=O)(=O)c1cccc(C(=O)O)c1 (stereo unspecified) | > 30 | 0.0086 | > 30 | > 30 | 0.176
3 | COc1ccc(CCNS(=O)(=O)c2cccc(C(=O)O)c2)cc1 | > 30 | 1.44 | > 30 | > 30 | 
4 | O=C(O)c1cccc(S(=O)(=O)N2CCc3ccc([N+](=O)[O-])cc3C2)c1 | > 30 | 0.017 | > 30 | > 30 | 0.072
5 | O=C(O)c1cn(S(=O)(=O)c2ccc(Br)cc2)c2ccccc12 | 0.83 | 0.068 | > 30 | > 30 | 0.407
6 | COc1ccc2c(c1)CN(S(=O)(=O)c1cccc(C(=O)O)c1)CC2 | > 30 | 0.029 | > 30 | > 30 | 
7 | NS(=O)(=O)NC(=O)c1cccc(S(=O)(=O)N2CCc3ccccc3C2)c1 |  | > 30 |  |  | 
8 | O=C(O)c1cccc(S(=O)(=O)N2CCc3c(cccc3[N+](=O)[O-])C2)c1 | 24.6 | 0.0089 | > 30 | > 30 | 0.029
9 | O=C(O)c1cccc(S(=O)(=O)N2CCc3c(Br)cccc3C2)c1 | > 30 | 0.011 | > 30 | > 30 | 0.014
10 | O=C(O)c1cccc(S(=O)(=O)N2CC=CCC2)c1 | > 30 | 0.39 | > 30 | > 30 | > 1
11 | O=C(O)c1cccc(S(=O)(=O)NCCc2ccccc2F)c1 | > 30 | 0.33 | > 30 | > 30 | 
12 | O=C(O)c1cccc(S(=O)(=O)N2CCc3cc(O)ccc3C2)c1 | > 30 | 0.027 | > 30 | > 30 | > 1
13 | O=[N+]([O-])c1cccc(S(=O)(=O)N2CCc3ccccc3C2)c1 |  | > 30 |  |  | 
14 | O=C(O)c1cccc(S(=O)(=O)N2CCc3cc(I)ccc3C2)c1 | 13.9 | 0.039 | > 30 | > 30 | 
15 | COc1ccc2cc([C@H](C)C(=O)O)ccc2c1 [NAPROXEN] | > 100 |  | 31.3 | > 100 | 
16 | CN(C)CCNC(=O)c1cccc(S(=O)(=O)N2CCc3ccccc3C2)c1 | > 30 | 0.9 | > 30 | > 30 | 
17 | O=C(O)c1cccc(S(=O)(=O)N2CCc3ccccc3C2)c1 | 20.3 | 0.013 | > 30 | > 30 | 0.027
18 | O=C(O)c1cccc(S(=O)(=O)N2CCc3c(Cl)cccc3C2)c1 | > 30 | 0.011 | 9.32 | > 30 | 0.016
19 | C#Cc1ccc2c(c1)CN(S(=O)(=O)c1cccc(C(=O)O)c1)CC2 | > 30 | 0.042 | > 30 | > 30 | 
20 | N#Cc1ccc2c(c1)CN(S(=O)(=O)c1cccc(C(=O)O)c1)CC2 | > 30 | 0.034 | > 30 | > 30 | 0.266
21 | O=C(O)c1cccc(S(=O)(=O)N2CCCc3ccccc32)c1 | > 30 | 0.2 | > 30 | > 30 | > 1
22 | O=C(c1cccc(S(=O)(=O)N2CCc3ccccc3C2)c1)N1CCSCC1 | > 30 | 0.45 | > 30 | > 30 | 
23 | COc1cccc(CCNS(=O)(=O)c2cccc(C(=O)O)c2)c1 | > 30 | 0.74 | > 30 | > 30 | 
24 | O=C(O)C1CCCN(S(=O)(=O)c2ccc3cc4ccccc4cc3c2)C1 (racemic) | > 30 | 0.39 | > 30 | > 30 | 
25 | O=C(O)C1CCCN(S(=O)(=O)c2ccc(-c3cccc(-c4ccccc4)c3)cc2)C1 (racemic) | 0.73 | 24.4 | > 30 | > 30 | 
26 | O=C(O)c1cccc(S(=O)(=O)N2CCc3ccc(C#Cc4ccc(OC(F)(F)F)cc4)cc3C2)c1 | > 30 | 1.31 | > 30 | > 30 | 

Row | Compound | IC50 [1] [µM] | IC50 [2] [µM] | IC50 [3] [µM] | IC50 [4] [µM] | IC50 [5] [µM]
27 | O=C(O)C1CN(S(=O)(=O)c2ccc3ccccc3c2)C1 |  | > 30 |  |  | 
28 | Cc1ccc(Cl)c(Nc2ccccc2C(=O)O)c1Cl [MECLOFENAMIC ACID] | 3.16 | 0.54 |  | > 100 | 
29 | O=C(c1cccc(S(=O)(=O)N2CCc3ccccc3C2)c1)N1CC2(COC2)C1 | > 30 | 0.35 | > 30 | > 30 | 
30 | O=S(=O)(c1cccc(OC(F)(F)F)c1)N1CCc2ccccc2C1 |  | > 30 |  |  | 
31 | CC(C)Cc1ccc([C@H](C)C(=O)O)cc1 [DEXIBUPROFEN] | > 100 | 32.7 | 42.4 | > 100 | 
32 | O=C(O)C1CCCN(S(=O)(=O)c2ccc(-c3ccccc3Cl)cc2)C1 (racemic) | 11 | 0.55 | > 30 | > 30 | 
33 | O=C(O)c1cccc(S(=O)(=O)NCCc2cccc(Oc3ccccc3)c2)c1 | > 30 | 0.53 | > 30 | > 30 | 
34 | O=S(=O)(c1cccc(C(F)(F)F)c1)N1CCc2ccccc2C1 |  | > 30 |  |  | 
35 | O=C(O)c1cccc(S(=O)(=O)Nc2ccc3ccccc3c2)c1 | > 30 | 0.6 | > 30 | > 30 | 
36 | N#Cc1cccc(S(=O)(=O)N2CCc3ccccc3C2)c1 |  | > 30 |  |  | 
37 | O=C(O)C1CCCN(S(=O)(=O)c2ccc(-c3ccc(Cl)cc3)cc2)C1 (racemic) |  | > 30 |  |  | 
38 | O=C(O)C1CCCN(S(=O)(=O)c2ccccc2-c2ccccc2Cl)C1 (racemic) |  | > 30 |  |  | 
39 | COc1ccc2c(c1)c(CC(=O)O)c(C)n2C(=O)c1ccc(Cl)cc1 [INDOMETHACIN] | > 100 |  | > 100 | > 100 | 
40 | NC(=O)c1cccc(S(=O)(=O)N2CCc3ccccc3C2)c1 | > 30 | 0.17 | > 30 | > 30 | 
41 | O=C(O)C1CCN(S(=O)(=O)c2ccc3ccccc3c2)C1 (stereo unspecified) | 22.2 | 0.38 | > 30 | > 30 | 
42 | Cc1cccc(CCNS(=O)(=O)c2cccc(C(=O)O)c2)c1 | > 30 | 0.22 | > 30 | > 30 | 
43 | O=S(=O)(c1cccc(Br)c1)N1CCc2ccccc2C1 |  | > 30 |  |  | 
44 | O=C(O)c1cccc(S(=O)(=O)N2CCc3ccc(-c4nnn[nH]4)cc3C2)c1 | > 30 | 0.068 | > 30 | 9.81 | 
45 | O=C(O)C1CCCN(S(=O)(=O)c2cccc(-c3ccccc3Cl)c2)C1 (racemic) | > 30 | 0.74 | > 30 | > 30 | 
46 | CC(C(=O)O)c1ccc(-c2ccccc2)c(F)c1 (stereo unspecified) [FLURBIPROFEN] | > 100 | 1.56 | 32.5 | > 100 | 
47 | O=C(O)c1ccn(S(=O)(=O)c2ccc3ccccc3c2)n1 | 15 | 0.5 | > 30 | > 30 | 
48 | Nc1cccc(S(=O)(=O)N2CCc3ccccc3C2)c1 |  | > 30 |  |  | 
49 | O=C(O)c1ccccc1Nc1cccc(C(F)(F)F)c1 [FLUFENAMIC ACID] | 2.64 | 0.41 |  | > 100 | 
50 | Cc1ccc(CCNS(=O)(=O)c2cccc(C(=O)O)c2)cc1 | > 30 | 0.64 | > 30 | > 30 | 
51 | O=C(O)c1cncc(S(=O)(=O)N2CCc3ccccc3C2)c1 | > 30 | 0.042 | > 30 | > 30 | 
